In patent publication US20150175599A1, “FAAH Inhibitors” (Ironwood Pharmaceuticals, Inc., priority 2010, published 2015):

Biological target: T1, FAAH (Rattus norvegicus, UniProt P97612)
T1 construct: For the assay of FAAH activity in rat brain membrane (RBM) homogenates; tissue Charles River (animals); host or cells: rat whole brain, membrane fraction
T1 sequence (P97612 1-579): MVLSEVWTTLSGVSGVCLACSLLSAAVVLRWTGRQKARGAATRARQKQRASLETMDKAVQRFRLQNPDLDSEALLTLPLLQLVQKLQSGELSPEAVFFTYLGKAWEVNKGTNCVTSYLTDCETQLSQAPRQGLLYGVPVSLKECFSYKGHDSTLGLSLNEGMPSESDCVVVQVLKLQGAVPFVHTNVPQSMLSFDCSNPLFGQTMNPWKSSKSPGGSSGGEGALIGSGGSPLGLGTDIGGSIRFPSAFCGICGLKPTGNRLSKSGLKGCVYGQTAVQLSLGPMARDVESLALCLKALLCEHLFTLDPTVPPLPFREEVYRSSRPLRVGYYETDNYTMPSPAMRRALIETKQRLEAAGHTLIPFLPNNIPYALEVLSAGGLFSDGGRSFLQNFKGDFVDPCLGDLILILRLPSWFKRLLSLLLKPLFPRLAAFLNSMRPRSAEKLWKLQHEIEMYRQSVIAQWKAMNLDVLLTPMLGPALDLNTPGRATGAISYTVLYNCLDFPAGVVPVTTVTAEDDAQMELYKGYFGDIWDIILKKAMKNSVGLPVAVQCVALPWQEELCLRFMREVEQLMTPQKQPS
Experiment: FAAH inhibition, rat brain membrane homogenate assay
Type: biochemical
Conditions: rat brain homogenate; average activity; read-out: Rat Brain Extract FAAH IC50
Summary of the method: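 Membranes from female CD rat brain (Tris pH 7.4/EDTA/MgCl2 resuspension), 7 μg protein, incubated 10 min at 37 °C with [3H]anandamide plus […] unlabelled AEA, 1 mg/mL fatty acid-free BSA, Tris-HCl pH 6.5, 1 mM EDTA, 1% DMSO. [3H]ethanolamine separated by chloroform/methanol extraction or charcoal filtration, scintillation-counted; IC50 derived.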

| SMILES | IC50 |
| --- | --- |
| COc1cnc2c(c1)c(C(=O)C(=O)Nc1ccnc(OC)c1)c(C)n2Cc1ccc(Cl)cc1Cl [Compound 42, 2-(1-(2,4-dichlorobenzyl)-5-methoxy-2-methyl-1H-pyrrolo[2,3-b]pyridin-3-yl)-N-(2-methoxypyridin-4-yl)-2-oxoacetamide] | < 0.1 µM |
| COc1cc(NC(=O)C(=O)c2c(C)n(Cc3ccc(Cl)cc3)c3ccc(CN(C)C)cc23)ccn1 [Compound 26, 2-(1-(4-chlorobenzyl)-5-((dimethylamino)methyl)-2-methyl-1H-indol-3-yl)-N-(2-methoxypyridin-4-yl)-2-oxoacetamide] | 0.1 to 1 µM |
| COc1cnc2c(c1)c(C(=O)C(=O)Nc1ccnc(OC)c1)c(C)n2Cc1ccc(Cl)cc1 [Compound 38, 2-(1-(4-chlorobenzyl)-5-methoxy-2-methyl-1H-pyrrolo[2,3-b]pyridin-3-yl)-N-(2-methoxypyridin-4-yl)-2-oxoacetamide] | < 0.1 µM |
| COc1ccc2c(c1)c(C(=O)C(=O)Nc1cc(Cl)nc(OC)c1)c(C)n2Cc1ccc(Cl)cc1 [Compound 47, N-(2-chloro-6-methoxypyridin-4-yl)-2-(1-(4-chlorobenzyl)-5-methoxy-2-methyl-1H-indol-3-yl)-2-oxoacetamide] | < 0.1 µM |
| COc1cc(NC(=O)C(=O)c2c(C)n(Cc3ccc(Cl)cc3)c3cc(F)c(OC)cc23)ccn1 [Compound 72, 2-(1-(4-chlorobenzyl)-6-fluoro-5-methoxy-2-methyl-1H-indol-3-yl)-N-(2-methoxypyridin-4-yl)-2-oxoacetamide] | < 0.1 µM |
| COc1ccc(Cn2c(C)c(C(=O)C(=O)Nc3ccnc(OC)c3)c3cc(OC)cnc32)nc1 [Compound 40, 2-(5-methoxy-1-((5-methoxypyridin-2-yl)methyl)-2-methyl-1H-pyrrolo[2,3-b]pyridin-3-yl)-N-(2-methoxypyridin-4-yl)-2-oxoacetamide] | < 0.1 µM |
| COc1cc(NC(=O)C(=O)c2c(C)n(Cc3ccc(Cl)cc3)c3ccc(C(F)(F)F)cc23)ccn1 [Compound 21, 2-(1-(4-chlorobenzyl)-2-methyl-5-(trifluoromethyl)-1H-indol-3-yl)-N-(2-methoxypyridin-4-yl)-2-oxoacetamide] | < 0.1 µM |
| COc1cc(NC(=O)C(=O)c2c(C)n(Cc3ncc(Cl)cc3Cl)c3cc(F)c(OC)cc23)ccn1 [Compound 13, 2-(1-((3,5-dichloropyridin-2-yl)methyl)-6-fluoro-5-methoxy-2-methyl-1H-indol-3-yl)-N-(2-methoxypyridin-4-yl)-2-oxoacetamide] | < 0.1 µM |
| COc1ccc2c(c1)c(C(=O)C(=O)Nc1cc(OC)ncc1F)c(C)n2Cc1ccc(Cl)cc1 [Compound 54, 2-(1-(4-chlorobenzyl)-5-methoxy-2-methyl-1H-indol-3-yl)-N-(5-fluoro-2-methoxypyridin-4-yl)-2-oxoacetamide] | < 0.1 µM |
| COc1cc(NC(=O)C(=O)c2c(C)n(Cc3ccc(Cl)cn3)c3cc(C)c(OC)cc23)ccn1 [Compound 95, 2-(1-((5-chloropyridin-2-yl)methyl)-5-methoxy-2,6-dimethyl-1H-indol-3-yl)-N-(2-methoxypyridin-4-yl)-2-oxoacetamide] | < 0.1 µM |
| COc1cc(NC(=O)C(=O)c2c(C)n(Cc3ccc(Cl)cc3)c3cc(C)c(OC)cc23)ccn1 [Compound 74, 2-(1-(4-chlorobenzyl)-5-methoxy-2,6-dimethyl-1H-indol-3-yl)-N-(2-methoxypyridin-4-yl)-2-oxoacetamide] | < 0.1 µM |
| COc1cc(NC(=O)C(=O)c2c(C)n(Cc3ccc(Cl)cc3)c3ccc(C#N)cc23)ccn1 [Compound 15, 2-(1-(4-chlorobenzyl)-5-cyano-2-methyl-1H-indol-3-yl)-N-(2-methoxypyridin-4-yl)-2-oxoacetamide] | < 0.1 µM |
| COc1cc(NC(=O)C(=O)c2c(C)n(Cc3ccc(Cl)cn3)c3cc(Cl)c(OC)cc23)ccn1 [Compound 60, 2-(6-chloro-1-((5-chloropyridin-2-yl)methyl)-5-methoxy-2-methyl-1H-indol-3-yl)-N-(2-methoxypyridin-4-yl)-2-oxoacetamide] | < 0.1 µM |
| COc1ccc2c(c1)c(C(=O)C(=O)Nc1ccnc(OC)c1)c(C)n2Cc1ccc(S(C)(=O)=O)cc1 [Compound 39, 2-(5-methoxy-2-methyl-1-(4-(methylsulfonyl)benzyl)-1H-indol-3-yl)-N-(2-methoxypyridin-4-yl)-2-oxoacetamide] | 1 to 10 µM |
| COc1ccc(Cn2c(C)c(C(=O)C(=O)Nc3ccnc(OC)c3)c3cc(OC)c(F)cc32)nc1 [Compound 32, 2-(6-fluoro-5-methoxy-1-((5-methoxypyridin-2-yl)methyl)-2-methyl-1H-indol-3-yl)-N-(2-methoxypyridin-4-yl)-2-oxoacetamide] | < 0.1 µM |
